# Square brackets hold non-standard residues; d marks the D form. Peptide text beside a SMILES is read from it. Orn = NCCC[C@H](N)C(=O)O
# Tested on: SARS-CoV-2
# Experiment: microbe, parasite or virus in culture
# Conditions: Severe acute respiratory syndrome coronavirus 2, Vero C1008, 48 h
SMILES,IC50 [µM],IC50 (read-out: pIC50 (converted)) [µM]
CN(C)CCc1c[nH]c2ccc(C[C@H]3COC(=O)N3)cc12 [ZOLMITRIPTAN],> 20,> 20
CSc1ccc(C(=O)/C=C/c2cc(C)c(OC(C)(C)C(=O)O)c(C)c2)cc1 [ELAFIBRANOR],> 20,> 20
CC(C(=O)O)c1ccc(Oc2nccs2)cc1 (stereo unspecified) [ZOLIPROFEN],> 20,> 20
COc1ccc2oc3ccccc3c(=O)c2c1,> 20,> 20
COc1cc(C(=O)NS(=O)(=O)c2ccccc2C)ccc1Cc1cn(C)c2ccc(NC(=O)OC3CCCC3)cc12 [ZAFIRLUKAST],> 20,> 20
Oc1c(I)cc(Cl)c2cccnc12 [CLIOQUINOL],> 20,> 20
CCN(CC)C(=O)Nc1ccc(OCC(O)CNC(C)(C)C)c(C(C)=O)c1 (stereo unspecified) [CELIPROLOL],> 20,> 20
Cc1cccc(Cl)c1C(=O)N[C@@H](Cc1ccc(NC(=O)c2c(Cl)cccc2Cl)cc1)C(=O)O,> 20,> 20
CCOCCn1c(N2CCCN(C)CC2)nc2ccccc21 [EMEDASTINE],> 20,> 20
O=C(Nc1ccc(Cl)cc1)c1cc(Br)ccc1O [BROMOCHLOROSALICYLANILIDE],> 20,> 20
CN(C)[C@@H]1C(O)=C(C(N)=O)C(=O)[C@@]2(O)C(O)=C3C(=O)c4c(O)ccc(Cl)c4[C@@](C)(O)C3C[C@@H]12 (stereo partly specified),> 20,> 20
Cc1cccc(Nc2ccccc2C(=O)O)c1C [MEFENAMIC ACID],> 20,> 20
Oc1c(Cc2ccccc2)ccc2ccccc12,> 20,> 20
C/C=C1\[C@H]2C=C(C)C[C@]1(N)c1ccc(=O)[nH]c1C2 [HUPERZINE A],> 20,> 20
CN(C)CC[C@@H](c1ccc(Cl)cc1)c1ccccn1 [DEXCHLORPHENIRAMINE],> 20,> 20
CC(C)(C)OC(=O)N1CCC[C@H]1CO,> 20,> 20
CC(C)C[C@H](NC(=O)OCC1c2ccccc2-c2ccccc21)C(=O)O,> 20,> 20
CC12CCC3C(CC[C@H]4C[C@H](Cl)CCC34C)C1CCC2=O (stereo partly specified),> 20,> 20
O=S(=O)(O)c1ccc2ccccc2c1,> 20,> 20
O=c1cccc2n1CC1CC2CN2CCCCC12 (stereo unspecified),> 20,> 20
CCC(C(=O)NC(N)=O)c1ccccc1 (stereo unspecified) [PHENETURIDE],> 20,> 20
CC(CCc1ccccc1)NCC(O)c1ccc(O)c(C(N)=O)c1 (stereo unspecified) [LABETALOL],> 20,> 20
CC(C)=CCC1=C(O)C(=O)c2ccccc2C1=O [LAPACHOL],> 20,> 20
CCCCN(CCCC)CCNc1nc(-c2ccccc2)no1 [BUTALAMINE],> 20,> 20
O=C(O)C(=O)CBr [BROMOPYRUVATE],> 20,> 20
O=C(Nc1ccc(O)cc1)c1ccccc1O [OSALMID],> 20,> 20
Nc1ccc(C#Cc2cnn3c(C(F)(F)F)cc(-c4ccc(C(F)(F)F)cc4)nc23)cn1 [DECOGLURANT],> 20,> 20

SMILES,IC50 [µM],IC50 (read-out: pIC50 (converted)) [µM]
CC(C)C[C@@H]1NC(=O)[C@H](CCCN)NC(=O)[C@H](C(C)C)NC(=O)[C@@H]2CCCN2C(=O)[C@@H](Cc2ccccc2)NC(=O)[C@H](CC(C)C)NC(=O)[C@H](CCCN)NC(=O)[C@H](C(C)C)NC(=O)[C@@H]2CCCN2C(=O)[C@@H](Cc2ccccc2)NC1=O [GRAMICIDIN S] (cyclo(L[dF]PV[Orn]L[dF]PV[Orn])),> 20,> 20
C=C1C(=O)[C@]23[C@H](O)[C@H]1CC[C@H]2[C@@]12CO[C@]3(O)[C@@H](O)[C@@H]1C(C)(C)CC[C@@H]2O [ORIDONIN],> 20,> 20
CCN(CC)CC(C)OC(=O)[C@H]1CCCC[C@]1(O)C1CCCCC1 (stereo partly specified),> 20,> 20
CCOc1ccccc1OCC1CNCCO1 (stereo unspecified) [VILOXAZINE],> 20,> 20
CC(C)CCCC(C)C1CCC2C3CC[C@H]4CC(O)CCC4(C)C3CCC12C (stereo partly specified),> 20,> 20
N#Cc1c(Cl)c(Cl)c(Cl)c(C#N)c1Cl [CHLOROTHALONIL],> 20,> 20
Nc1nc(=O)c2c([nH]1)NCC(CNc1ccc(C(=O)N[C@@H](CCC(=O)O)C(=O)O)cc1)N2C=O (stereo partly specified) [LEUCOVORIN],> 20,> 20
OCCN1CCN(CCCN2c3ccccc3Sc3ccc(Cl)cc32)CC1 [PERPHENAZINE],> 20,> 20
CC(C)(C)NC[C@H](O)COc1nsnc1N1CCOCC1 [TIMOLOL],> 20,> 20
COc1cccc(C2(CCCN(C)C)C(=O)NC(=O)CC2(C)C)c1 (stereo unspecified),> 20,> 20
CC(=O)Oc1ccccc1C(=O)O [ASPIRIN],> 20,> 20
OCCN(CCO)c1nc(-c2ccccc2)c(-c2ccccc2)o1 [DITAZOLE],> 20,> 20
C[C@H](NC(=O)Cn1nnc2ccccc2c1=O)c1ccc(OC(F)(F)F)cc1 [ZELATRIAZIN],> 20,> 20
COc1ccc2c(c1)CC[C@@H](CN(C)CC(=O)O)[C@H]2c1ccccc1,> 20,> 20
COC(=O)/C(=C1/OC(=O)C(c2ccccc2)=C1O)c1ccccc1 [VULPINIC ACID],> 20,> 20
CN1CC[C@]23CCCC[C@H]2[C@H]1Cc1ccc(O)cc13 [LEVORPHANOL],> 20,> 20
CO[C@H]1C[C@H](O[C@H]2[C@H](C)[C@@H](O[C@@H]3O[C@H](C)C[C@H](N(C)C)[C@H]3O)[C@@H](C)C[C@@]3(CO3)C(=O)[C@H](C)[C@@H](O)[C@@H](C)[C@@H](C)OC(=O)[C@@H]2C)O[C@@H](C)[C@@H]1O [OLEANDOMYCIN],> 20,> 20
C[C@H]1CC[C@]2(NC1)O[C@H]1C[C@H]3[C@@H]4CC[C@H]5C[C@@H](O)CC[C@]5(C)[C@H]4CC[C@]3(C)[C@H]1[C@@H]2C [TOMATIDINE],> 20,> 20
COc1cccc(C=O)c1O,> 20,> 20
CNC(=O)c1ccc(N2C(=S)N(c3ccc(C#N)c(C(F)(F)F)c3)C(=O)C2(C)C)cc1F [ENZALUTAMIDE],> 20,> 20
COc1ccc(-c2cc(=O)c3c(O)cc(O)cc3o2)cc1 [ACACETIN],> 20,> 20
COc1cc(OC)c2c(=O)cc(-c3ccccc3)oc2c1 [CHRYSIN DIMETHYL ETHER],> 20,> 20
CCC(CCC(C)C1CCC2C3CC[C@H]4CC(O)CCC4(C)C3CCC12C)C(C)C (stereo partly specified),> 20,> 20
CN(C)CCCn1c(=O)n(-c2ccccc2)c2cc(Cl)ccc21 [CLODAZON],> 20,> 20
C=CC[C@]1(O)CC[C@H]2[C@@H]3CCC4=CC(=O)CCC4=C3C=C[C@@]21C [ALTRENOGEST],> 20,> 20
CCN(CC)CC(C)(C)COC(=O)C(CO)c1ccccc1 (stereo unspecified) [AMPROTROPINE],> 20,> 20
